Results published in US12171229B2, “Heteroaryl-triazole and heteroaryl-tetrazole compounds as pesticides” (BAYER AKTIENGESELLSCHAFT, priority 2018, dated 2024).

What was measured:
Format in all cases: in vivo
[1] = test system: Musca domestica strain WHO-N; assay: Musca domestica test (MUSCDO surface treatment & contact assay); conditions: surface concentration 20 mg/m^2, exposure 30 minutes, 24 hours after contact, read-out: efficacy (mortality)
How it was run: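 Adult WHO-N flies exposed for 30 minutes on a glazed tile coated with compound dissolved in acetone (2 mg/ml) with 2000 ppm rapeseed oil methyl ester, acetone evaporated. Percent mortality read 24 hours after contact.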

[2] = test system: Anopheles funestus strain FUMOZ-R; assay: Anopheles funestus test (ANPHFU surface treatment & contact assay); conditions: surface concentration 4 mg/m^2, exposure 30 minutes, 24 hours after contact, read-out: efficacy (mortality)
How it was run: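 Compound dissolved in acetone (2 mg/ml) with 2000 ppm rapeseed oil methyl ester and applied to a glazed tile. After acetone evaporation, adult FUMOZ-R mosquitoes were exposed to the dried surface for 30 min. Percent mortality was scored 24 h after contact.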

[3] = test system: Ctenocephalides felis; assay: Ctenocephalides felis in-vitro contact test, adult cat flea; conditions: 5 μg/cm^2 (=500 g/ha), after 48 hours, adult cat fleas, read-out: efficacy (fleas dead or moribund)
How it was run: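 Compound in acetone coated onto inner walls of glass tubes, e.g. 900 ppm giving 5 μg/cm². After drying, 5–10 adult C. felis added per tube and held at room temperature. At 48 h, fleas unable to escape a 45–50 °C heating plate within 5 min scored dead/moribund, giving % efficacy.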

[4] = test system: Myzus persicae; assay: Myzus persicae oral test; conditions: 120 h, 4 ppm, after 5 days
How it was run: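 Aphid mortality (%) was recorded 5 days after a mixed Myzus persicae population began sucking, through parafilm, on compound solutions (acetone stock diluted with water) combined with sugar-supplemented IPL41 medium.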

[5] = test system: Culex quinquefasciatus strain P00; assay: Culex quinquefasciatus test (CULXFA surface treatment & contact assay); conditions: 24 hours after contact, read-out: efficacy (mortality)
How it was run: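 Compound dissolved in acetone (2 mg/ml) with 2000 ppm rapeseed oil methyl ester, applied to glazed tile and dried; adult C. quinquefasciatus strain P00 exposed to surface for 30 minutes. Mortality (%) scored 24 hours after contact.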

[6] = test system: Nezara viridula; assay: Nezara viridula spray test; conditions: 96 h, after 4 days, larvae on barley plants
How it was run: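 Barley plants infested with Nezara viridula larvae were sprayed with compound diluted in water containing 1000 ppm emulsifier. Percent mortality was scored 4 days later, where 100% means all bugs killed and 0% none.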

[7] = test system: Diabrotica balteata; assay: Diabrotica balteata spray test; conditions: Diabrotica balteata, in Triticum aestivum, 168 h, after 7 days, larvae on wheat seeds, read-out: efficacy (seedlings grown up)
How it was run: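 Germinated wheat seeds (5 per well, 1 day on agar) sprayed with compound diluted in water containing 1000 ppm emulsifier, then infested with 10–20 D. balteata larvae. Efficacy scored after 7 days: 100% = seedlings like untreated uninfested control, 0% = no seedlings grown.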

[8] = test system: Ctenocephalides felis; assay: Ctenocephalides felis oral test; conditions: 48 h, 100 ppm in cattle blood, after 2 days, adult unfed cat fleas
How it was run: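 About 20 unfed adult cat fleas feed through parafilm on cattle blood dosed with compound from a DMSO stock. Blood chamber at 37° C, fleas at room temperature. Percent mortality scored after 2 days.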

## C[C@H](NC(=O)c1cc(Cl)cc(C(F)(F)F)c1)c1ncnn1-c1ccc(NC(=O)C2CC2)cn1 [Example I-034, 3-chloro-N-[(1S)-1-(1-{5-[(cyclopropylcarbonyl)amino]pyridin-2-yl}-1H-1,2,4-triazol-5-yl)ethyl]-5-(trifluoromethyl)benzamide]
[1]
  mortality at 20 mg/m2: 90 to 100%
[2]
  mortality at 4 mg/m2: 85 to 100%
[3]
  pest or weed control at 5 µg/cm2: 100%
[4]
  mortality at 4 ppm: 100%
[5]; surface concentration 4 mg/m^2, exposure 30 minutes
  mortality at 4 mg/m2: 90 to 100%
[5]; surface concentration 20 mg/m^2, exposure 30 minutes
  mortality at 20 mg/m2: 90 to 100%
[6]; 100 g/ha
  mortality at 100 g/ha: 100%
[6]; 500 g/ha
  mortality at 500 g/ha: 100%
[7]; 80 μg/well (=250 g/ha)
  pest or weed control at 80 µg/disc, 250 g/ha: 100%
[7]; 160 μg/well (=500 g/ha)
  pest or weed control at 160 µg/disc, 500 g/ha: 100%
[8]
  mortality at 100 ppm: 100%
